Assay results: patent US5792780A, “Azole compounds, their production and use” (Takeda Chemical Industries, Ltd., priority 1993, dated 1998)

What was measured:
[1] = tested on: Candida albicans IFO 0583; test: growth inhibition zone, paper disc agar diffusion; type: cell-based; conditions: IFO0583, 48 h, Table 6, Medium A, 1000 μg/ml, 28° C., two-day culture, read-out: Diameter of growth-inhibition zone
Experimental: Evaluation of the antifungal activities of the compound of the present invention was conducted by the following method: a sheet of filter paper disc (manufactured by Toyo Seisakusho, 8 mm in diameter) soaked in a 1000 μg/ml solution of a compound of the present invention in methanol was placed on an agar plate containing various fungi, which was incubated at 28° C. for two days, and the diameter of the growth inhibition zone around the filter paper disc was measured. The following culture media were used:
A: yeast nitrogen base agar medium (pH 7.0)
B: peptone-yeast extract-glucose agar medium (pH 7.0)

Candida albicans TA = test: protective effect against experimental infection in mice (survival rate 7 days after infection); type: in vivo, Crj:CDF1 mice; conditions: po, 168 h, survival 7 days after infection
Experimental: (§1) Test Method: Five-week-old Crj:CDF1 mice were inoculated with the minimum lethal dose of Candida albicans TA intravenously. The test compound was suspended in a solution of 0.2% or 0.5% sodium carboxymethylcellulose (CMC). The suspension was administered orally once immediately after infection. The activity was expressed in terms of ED50 values calculated by the Reed and Muench method from the survival rate 7 days after infection.
as §1, with “of” for “of 0.2% or”

[2] = Table 7, P.O. once immediately after infection, 0.2% CMC
[3] = Table 9, compounds of formula (VI), P.O. once immediately after infection, 0.5% CMC
[4] = Table 8, P.O. once immediately after infection, 0.5% CMC

Row | SMILES | zone of inhibition at 1000 µg/mL [1] | ED50 (Candida albicans TA; [4]) | other results
1 | C[C@@H](N1CCN(c2ccc(OCC(F)(F)F)cc2)C1=O)[C@](O)(Cn1cncn1)c1ccc(F)cc1F [Compound 9, 1-[(1R,2R)-2-(2,4-difluorophenyl)-2-hydroxy-1-methyl-3-(1H-1,2,4-triazol-1-yl)propyl]-3-[4-(2,2,2-trifluoroethoxy)phenyl]-2-imidazolidinone] | 41 mm |  | ED50 (Candida albicans TA; [2]): 0.65 mg/kg
2 | C[C@@H](n1ccn(-c2ccc(OCC(F)(F)C(F)F)cc2)c1=O)[C@](O)(Cn1cncn1)c1ccccc1F [Reference Example 50, 1-[(1R,2R)-2-(2-fluorophenyl)-2-hydroxy-1-methyl-3-(1H-1,2,4-triazol-1-yl)propyl]-3-[4-(2,2,3,3-tetrafluoropropoxy)phenyl]-2(1H,3H)-imidazolone] |  |  | ED50 (Candida albicans TA; [3]): 0.32 mg/kg
3 | C[C@@H](N1CCN(c2ccc(OCC(F)(F)C(F)F)cc2)C1=O)[C@](O)(Cn1cncn1)c1ccccc1F [Compound 17, 1-[(1R,2R)-2-(2-fluorophenyl)-2-hydroxy-1-methyl-3-(1H-1,2,4-triazol-1-yl)propyl]-3-[4-(2,2,3,3-tetrafluoropropoxy)phenyl]-2-imidazolidinone] |  | 0.65 mg/kg | 
4 | C[C@@H](N1CCN(c2ccc(OCC(F)(F)C(F)(F)F)cc2)C1=O)[C@](O)(Cn1cncn1)c1ccc(F)cc1F [Compound 8, 1-[(1R,2R)-2-(2,4-difluorophenyl)-2-hydroxy-1-methyl-3-(1H-1,2,4-triazol-1-yl)propyl]-3-[4-(2,2,3,3,3-pentafluoropropoxy)phenyl]-2-imidazolidinone] | 28 mm |  | ED50 (Candida albicans TA; [2]): 2 mg/kg
5 | C[C@@H](N1CCN(c2ccc(OCC(F)(F)C(F)F)cc2)C1=O)[C@](O)(Cn1cncn1)c1ccc(F)cc1F [Compound 6, 1-[(1R,2R)-2-(2,4-difluorophenyl)-2-hydroxy-1-methyl-3-(1H-1,2,4-triazol-1-yl)propyl]-3-[4-(2,2,3,3-tetrafluoropropoxy)phenyl]-2-imidazolidinone] | 36 mm | 0.71 mg/kg | 
6 | C[C@@H](N1CC(=O)N(c2ccc(OC(F)(F)C(F)F)cc2)CC1=O)[C@](O)(Cn1cncn1)c1ccc(F)cc1F [Compound 12, 1-[(1R,2R)-2-(2,4-difluorophenyl)-2-hydroxy-1-methyl-3-(1H-1,2,4-triazol-1-yl)propyl]-4-[4-(1,1,2,2-tetrafluoroethoxy)phenyl]-2,5-peperazinedione] |  | 2.8 mg/kg | 
7 | C[C@@H](N1CCN(c2ccc(F)cc2)C1=O)[C@](O)(Cn1cncn1)c1ccc(F)cc1F [Compound 5, 1-[(1R,2R)-2-(2,4-difluorophenyl)-2-hydroxy-1-methyl-3-(1H-1,2,4-triazol-1-yl)propyl]-3-(4-fluorophenyl)-2-imidazolidinone] | 47 mm |  | 
8 | C[C@@H](N1CC(=O)N(c2ccc(OCC(F)(F)C(F)F)cc2)CC1=O)[C@](O)(Cn1cncn1)c1ccc(F)cc1F [Compound 11, 1-[(1R,2R)-2-(2,4-difluorophenyl)-2-hydroxy-1-methyl-3-(1H-1,2,4-triazol-1-yl)propyl]-4-[4-(2,2,3,3-tetrafluoropropoxy)phenyl]-2,5-piperazinedione] | 31 mm |  | 
9 | C[C@@H](N1CCN(c2ccc(OCC(F)(F)C(F)F)cc2)C(=O)C1=O)[C@](O)(Cn1cncn1)c1ccc(F)cc1F [Compound 14, 1-[(1R,2R)-2-(2,4-difluorophenyl)-2-hydroxy-1-methyl-3-(1H-1,2,4-triazol-1-yl)propyl]-4-[4-(2,2,3,3-tetrafluoropropoxy)phenyl]-2,3-piperazinedione] |  | 2.8 mg/kg | 
10 | C[C@@H](n1ccn(-c2ccc(OCC(F)(F)C(F)F)cc2)c1=O)[C@](O)(Cn1cncn1)c1ccc(F)cc1 [Reference Example 46, 1-[(1R,2R)-2-(4-fluorophenyl)-2-hydroxy-1-methyl-3-(1H-1,2,4-triazol-1-yl)propyl]-3-[4-(2,2,3,3-tetrafluoropropoxy)phenyl]-2(1H,3H)-imidazolone] |  |  | ED50 (Candida albicans TA; [3]): 0.32 mg/kg
11 | C[C@@H](N1CCN(c2ccc(OC(F)(F)C(F)F)cc2)C(=O)C1=O)[C@](O)(Cn1cncn1)c1ccc(F)cc1F [Compound 15, 1-[(1R,2R)-2-(2,4-difluorophenyl)-2-hydroxy-1-methyl-3-(1H-1,2,4-triazol-1-yl)propyl]-4-[4-(1,1,2,2-tetrafluoroethoxy)phenyl]-2,3-piperazinedione] |  | 2 mg/kg | 
12 | C[C@@H](N1CCN(c2ccc(OC(F)(F)C(F)F)cc2)C1=O)[C@](O)(Cn1cncn1)c1ccccc1F [Compound 16, 1-[(1R,2R)-2-(2-fluorophenyl)-2-hydroxy-1-methyl-3-(1H-1,2,4-triazol-1-yl)propyl]-3-[4-(1,1,2,2-tetrafluoroethoxy)phenyl]-2-imidazolidinone] |  | 0.35 mg/kg | 
13 | C[C@@H](N1CC(=O)N(c2ccc(F)cc2F)C1=O)[C@](O)(Cn1cncn1)c1ccc(F)cc1F [Compound 3, 1-[(1R,2R)-2-(2,4-difluorophenyl)-2-hydroxy-1-methyl-3-(1H-1,2,4-triazol-1-yl)propyl]-3-(2,4-difluorophenyl)-2,4-imidazolidinedione] | 41 mm |  | ED50 (Candida albicans TA; [2]): 2 mg/kg
14 | C[C@@H](n1ccn(-c2ccc(OC(F)(F)C(F)F)cc2)c1=O)[C@](O)(Cn1cncn1)c1ccc(F)cc1 [Reference Example 45, 1-[(1R,2R)-2-(4-fluorophenyl)-2-hydroxy-1-methyl-3-(1H-1,2,4-triazol-1-yl)propyl]-3-[4-(1,1,2,2-tetrafluoroethoxy)phenyl]-2(1H,3H)-imidazolone] |  |  | ED50 (Candida albicans TA; [3]): 0.18 mg/kg
15 | C[C@@H](N1CCN(c2ccc(OC(F)(F)C(F)F)cc2)C1=O)[C@](O)(Cn1cncn1)c1ccc(F)cc1F [Compound 7, 1-[(1R,2R)-2-(2,4-difluorophenyl)-2-hydroxy-1-methyl-3-(1H-1,2,4-triazol-1-yl)propyl]-3-[4-(1,1,2,2-tetrafluoroethoxy)phenyl]-2-imidazolidinone] | 35 mm | 0.35 mg/kg | ED50 (Candida albicans TA; [2]): 0.65 mg/kg
16 | C[C@@H](N1CCN(c2ccc(Cl)cc2)C1=O)[C@](O)(Cn1cncn1)c1ccc(F)cc1F [Compound 10, 1-(4-chlorophenyl)-3-[(1R,2R)-2-(2,4-difluorophenyl)-2-hydroxy-1-methyl-3-(1H-1,2,4-triazol-1-yl)propyl]-2-imidazolidinone] | 42 mm |  | ED50 (Candida albicans TA; [2]): 1.8 mg/kg
17 | C[C@@H](n1ccn(-c2ccc(OC(F)(F)C(F)F)cc2)c1=O)[C@](O)(Cn1cncn1)c1ccccc1F [Reference Example 49, 1-[(1R,2R)-2-(2-fluorophenyl)-2-hydroxy-1-methyl-3-(1H-1,2,4-triazol-1-yl)propyl]-3-[4-(1,1,2,2-tetrafluoroethoxy)phenyl]-2(1H,3H)-imidazolone] |  |  | ED50 (Candida albicans TA; [3]): 0.18 mg/kg
18 | C[C@@H](N1CCN(c2ccc(OCC(F)(F)C(F)F)cc2)C1=O)[C@](O)(Cn1cncn1)c1ccc(F)cc1 [Compound 19, 1-[(1R,2R)-2-(4-fluorophenyl)-2-hydroxy-1-methyl-3-(1H-1,2,4-triazol-1-yl)propyl]-3-[4-(2,2,3,3-tetrafluoropropoxy)phenyl]-2-imidazolidinone] |  | 0.77 mg/kg | 
19 | C[C@@H](N1CCN(c2ccc(OC(F)(F)C(F)F)cc2)C1=O)[C@](O)(Cn1cncn1)c1ccc(F)cc1 [Compound 18, 1-[(1R,2R)-2-(4-fluorophenyl)-2-hydroxy-1-methyl-3-(1H-1,2,4-triazol-1-yl)propyl]-3-[4-(1,1,2,2-tetrafluoroethoxy)phenyl]-2-imidazolidinone] |  | 0.35 mg/kg | 
